Results on 90 molecules are retold here after a melting point compilation (Tetko et al.; mined from patent text by program, amines drawn as free bases though some values may be those of a salt).

The melting point is the temperature, or range, at which the solid turns liquid.

`Cc1ccc2c(c1)[nH]c(=O)n2CCCN1CCC(C(=O)c2ccc(F)cc2)CC1` showed a melting point of 149 °C.

`C=C(CC)C(=O)c1ccc(OCC(=O)O)c(Cl)c1` yielded a melting point of 83.5 to 85.5 °C.

Regarding `O=C(O)c1cc([N+](=O)[O-])cc2c1Nc1ccc(CCCc3ccc(Cl)c(Cl)c3)cc1O2`, the melting point lay in the range of 90 to 93 °C.

`O=C(c1cc(-c2ccccc2)ccn1)N(O)Cc1ccc(F)cc1` yielded a melting point of 135 to 140 °C.

On to `CCCCCCCc1ccc(-c2ccc(N)cc2)cc1`, for which the melting point came to 79 °C.

Molecule `CCCCc1ccc(NS(=O)(=O)c2ccc(N3CCNC3=O)cc2)cc1` displayed a melting point of 203 to 205 °C.

`CC(C)CC1(CC(=O)NO)CC(=O)N(CCc2ccccc2)C1=O` (stereo not given) displayed a melting point of 136 to 137 °C.

Molecule `N#Cc1cnc2cc3ccccc3cc2c1Nc1ccc(Oc2ccccc2)cc1` displayed a melting point of 250 to 251 °C.

As for `CCOC(=O)c1cn(-c2nc(NC(C)(C)CC(C)(C)C)ccc2F)c2c(Cl)c(F)c(F)cc2c1=O`, the melting point is 178 to 180 °C.

Take `CC=CC(=O)C1C(C)CCCC1(C)C` (stereo not given): the melting point lay in the range of 8 to 9 °C.

With `CCOC(=O)CON(C)C(=S)Nc1ccc(Cl)cc1C`, the melting point was in the range of 104 to 106 °C.

Regarding `COc1cc2nc(NCCNCC(O)COc3ccccc3)nc(N)c2cc1OC` (stereo not given), the melting point fell in the range of 122 to 124 °C.

`CCOc1ccc2cc(-c3nn(C(C)c4oc5ccccc5c(=O)c4-c4cccc(F)c4)c4ncnc(N)c34)ccc2c1` (stereo not given) registered a melting point of 286 to 290 °C.

Take `CC1(C)CC(=O)CC(=O)C1c1ccccc1` (stereo not given): the melting point is 133 to 135 °C.

Consider `COc1ccc(-c2cc(C)cn2-c2ccc(S(N)(=O)=O)cc2)cc1`, for which the melting point was 163 to 166 °C.

On to `CCOC(=O)c1ccc(NC(=O)c2cc(Cl)ccc2OC)cc1OCC`, for which the melting point fell in the range of 108 to 111 °C.

On to `CCN(CC)c1ccc(CNc2cc(C(=O)Nc3ccc(F)c(F)c3)ccc2OC)cc1`, for which the melting point lay within 165 to 167 °C.

`CCCCc1ccc(NC=O)c([N+](=O)[O-])c1` gave a melting point of 72 to 73 °C.

`O=[N+]([O-])c1ccc(Cl)cc1Cc1ccccn1` yielded a melting point of 69 °C.

Molecule `CC(C)N(N)C(=O)N1CCCC1C(=O)OC(C)(C)C` (stereo not given) displayed a melting point of 87 to 91 °C.

`CCCC(=O)c1c[nH]c2c(OC)cccc2c1=O` had a melting point of 200 to 202 °C.

In turn, `Clc1ccc2c(c1)C(n1ccnc1)c1ccccc1CO2` (stereo not given) showed a melting point of 180 to 182 °C.

In the case of `O=C(O)c1cnc(S)n1Cc1cc(F)cc(F)c1`, the melting point lay within 240 to 241 °C.

The molecule `C#CCC(C)C(=O)N1c2ccccc2C(=O)Nc2cccnc21` (stereo not given) yielded a melting point of 202 to 204 °C.

Regarding `CCOC(C#CCN1CCC(NC(=O)c2ccccc2)CC1)OCC`, the melting point was determined as 130 °C.

With `CC(C(=O)O)c1ccc(-c2ccc(Br)cc2Br)cc1` (stereo not given), the melting point lay within 114 to 116 °C.

Consider `COC(=O)C(C)Oc1ccc(Oc2ccc3cc(Cl)cc(Cl)c3n2)cc1` (stereo not given), for which the melting point came to 70 °C.

In turn, `CC(C)(C)c1ccc2c(C=O)c3ccccc3c(Cl)c2c1` returned a melting point of 143 to 147 °C.

`Cc1cc2cc(CN3CCC(CCC(=O)N4CCCCC4)CC3)cnc2cc1NC(=O)c1ccc(-c2ccc(F)cc2)cc1` displayed a melting point of 189 to 191 °C.

Consider `c1ccc(-c2ccc3c(ccc4c5ccccc5[nH]c34)c2)cc1`, for which the melting point is 254 °C.

`OCc1cn2c(n1)CN=C(c1ccccc1)c1cc(C(F)(F)F)ccc1-2`: the melting point is 193 to 194 °C.

On to `CC(C)(C)N(NC(=O)c1ccccn1)C(=O)c1ccccc1[N+](=O)[O-]`, for which the melting point was 137 to 140 °C.

Turning to `O=C(OCc1ccccc1)c1cc(C(=O)OCc2ccccc2)[nH]n1`, the melting point came to 120 °C.

As for `CC12CCC(OS(=O)(=O)C(F)(F)F)=CC1=CCC1C2CCC2(C)C(C(=O)O)CCC12` (stereo not given), the melting point was 140 to 150 °C.

On to `c1cnc2c(OCCOc3nccnc3N3CCNCC3)cccc2c1`, for which the melting point lay within 98 to 100 °C.

Consider `O=c1c2ccc3cc[nH]c3c2ccn1Cc1ccccc1`, for which the melting point lay in the range of 211 to 213 °C.

`O=C1CC2(CCC2)C(CC(Cl)(Cl)Cl)O1` (stereo not given) yielded a melting point of 86.5 to 87.5 °C.

On to `C[Si](C)(C)CNc1ccc([N+](=O)[O-])cc1`, for which the melting point is 120 °C.

Consider `O=C(CCCCC1CCSS1)n1ccnc1` (stereo not given), for which the melting point lay within 37 to 39 °C.

In the case of `Cc1nc2cc(Br)ccc2c(=O)n1C1CCC(=O)NC1=O` (stereo not given), the melting point fell in the range of 315 to 317 °C.

Regarding `Cc1ccc2nc3c(C)cc(=O)c(Cl)c-3sc2c1`, the melting point lay within 215 to 218 °C.

In turn, `CCCn1nc2c(N)nc3ccccc3c2c1CCCc1cc[nH]c1` had a melting point of 173 to 174 °C.

As to `CCOC(=O)CCn1c(=O)c2ccccc2n(CCCCl)c1=O`, the melting point was in the range of 80 to 81 °C.

For the molecule `CCc1[nH]n(C2CCCC2)c2nc(-c3cccc(OCCN4CCOCC4)c3)nc(=O)c1-2`, the melting point lay within 173 to 176 °C.

Molecule `Cc1cc(C)cc(-c2cc(O)c(SCCc3ccccc3)c(=O)o2)c1` gave a melting point of 155 to 157 °C.

Turning to `CC(C)(C)c1cc(C2=NOC(CCOc3ccc([N+](=O)[O-])cc3)C2)cc(C(C)(C)C)c1O` (stereo not given), the melting point lay in the range of 151 to 153 °C.

In turn, `CCCCCCCCCCCCSCCCN(CCO)CCO` showed a melting point of 53 to 54 °C.

For the molecule `CCOc1ccc(CC(=O)NCCc2ccc(OC(C)C)c(OC(C)C)c2)cc1OCC`, the melting point was 71 °C.

Take `O=C(CNC(=O)C(Cc1ccccc1)NC(=O)C1CCCN1)Oc1c(Cl)c(Cl)c(Cl)c(Cl)c1Cl` (stereo not given): the melting point is 182 to 184 °C.

For `Cc1cc2nc(C)c(S(=O)Cc3ccccc3N(C)C)nc2cc1C` (stereo not given), the melting point lay within 83 to 88 °C.

The molecule `COc1cc2ncc(C#N)c(Nc3ccc(Cl)cc3F)c2cc1OC` registered a melting point of 139 to 141 °C.

`Cc1cc(COc2nn3c(-c4ccccc4F)nnc3cc2C2CCC2)no1` showed a melting point of 150 °C.

Consider `COC(=O)c1cc2ccc(OC)cc2n1CCN1CCC(N)CC1`, for which the melting point came out at 101 °C.

As for `CCCCc1cccnc1NC=C(C#N)C(=O)OCC`, the melting point is 98.5 to 99.5 °C.

Take `CN(Cc1ccc(N)cc1)C1CCSCC1`: the melting point is 88 to 89 °C.

The molecule `CC(=O)OCCN1CCN(CC#CC2=Cc3ccccc3Sc3ccc(Cl)cc32)CC1` registered a melting point of 96 to 99 °C.

The molecule `CCCCc1nc(Cl)c(C=O)n1Cc1ccc2oc(-c3ccccc3-c3nnn[nH]3)c(Br)c2c1` registered a melting point of 122 to 124 °C.

Turning to `Cn1nc(-c2cc3nccnc3[nH]2)cc1-c1ccccc1`, the melting point was 222 to 223 °C.

On to `COc1ccc2c(c1)C1(CCN(Cc3ccccc3)CC1)OC2c1ccc(F)cc1` (stereo not given), for which the melting point lay in the range of 86 to 88 °C.

`O=C(O)CN1C(=O)CN(Cc2ccccc2)C1=O` gave a melting point of 125 to 127 °C.

On to `Cn1c(C#N)c(-c2ccc(F)cc2)c2cccnc2c1=O`, for which the melting point lay in the range of 231 to 232 °C.

Molecule `O=c1c(Br)c(SCc2ccccc2)ccn1Cc1ccccc1` displayed a melting point of 181 to 182 °C.

Consider `CNC(=N[N+](=O)[O-])NCCSCc1[nH]cnc1C`, for which the melting point lay within 112 to 114 °C.

In turn, `COc1c2c(cc3c(C)cc(=O)oc13)CC(C)O2` (stereo not given) yielded a melting point of 113 to 115 °C.

On to `O=C1O[C@@H](c2ccccc2)N(C(=O)OCc2ccccc2)[C@H]1Cc1ccccc1`, for which the melting point is 120 to 122 °C.

In the case of `N#Cc1cnn(-c2ccc(Cl)c(Cl)c2Cl)c1Cl`, the melting point lay within 124 to 126 °C.

Regarding `CN(C)CCn1c2c(c3ccccc31)CCS(=O)(=O)CCC2`, the melting point was 154 to 155 °C.

Molecule `C=C(c1cncn1Cc1ccccc1)C(c1ccc(C)cc1)c1ccc(C)cc1` registered a melting point of 216 to 220 °C.

For the molecule `CS(=O)(=O)c1ccc(-c2cnn(CC(F)(F)F)c(=O)c2OC2CCCCC2)cc1`, the melting point lay in the range of 129 to 130 °C.

Regarding `COc1ccc(C=C2CS(=O)(=O)CC3=C2N=C2SCCN2C3c2ccc(OC)cc2)cc1` (stereo not given), the melting point is 235 to 240 °C.

Take `COc1cc(CCN2CCN(c3nsc4ccccc34)CC2)c(NC(=O)Nc2ccccc2C)cc1OC`: the melting point turned out to be 200 °C.

The molecule `COc1ccc2c(c1)c(CC(=O)OCc1ccc(Cl)cc1)c(C)n2C(=O)c1ccc(Cl)cc1` displayed a melting point of 113 to 114 °C.

`CC(/C=C/c1c(C)sc(C)c1C)=C(F)\C=C\C(C)=C\C(N)=O` gave a melting point of 212 to 215 °C.

As for `CONC(=O)Nc1ccc(-c2sc3c(c2CN(C)C(C)c2ccccn2)c(=O)n(-c2ccccc2)c(=O)n3Cc2c(F)cccc2F)cc1` (stereo not given), the melting point lay in the range of 146 to 148 °C.

Molecule `CC(C)(C)OC(=O)CSc1cccc(-c2nc(=O)c3ccccc3s2)n1` showed a melting point of 170 °C.

`O=Cc1c2ccccc2c(Cl)c2cc3ccccc3cc12` registered a melting point of 212 to 214 °C.

As to `CCOC(=O)c1cccc(NC(=O)c2cc(-c3ccc(F)cc3)oc2C)c1`, the melting point was in the range of 171 to 172 °C.

`Fc1ccc(-c2csc(NN=Cc3cn(Cc4ccc(Cl)cc4Cl)c4ccccc34)n2)cc1` yielded a melting point of 198 °C.

Consider `CCCCc1cnc(-c2ccc(N=C=O)cc2)nc1`, for which the melting point worked out at 48 °C.

As for `CC1(C)CS(=O)(=O)CC(C)(C)c2[nH]c(-c3ccccc3)nc21`, the melting point lay within 260 to 263 °C.

For the molecule `O=C(NNc1ccccc1)c1ccccc1O`, the melting point is 259 °C.

Consider `CC(C)(C)OC(=O)C1=Cc2cc(Br)ccc2OC1`, for which the melting point was 96 to 97 °C.

In turn, `OCc1cnc(-c2ccc(Cl)cc2)o1` returned a melting point of 115 to 116 °C.

With `CC(O)CNC1(F)C=CC(N)=C([N+](=O)[O-])C1` (stereo not given), the melting point was determined as 97 °C.

Take `CC(=O)NCC1CN=C(c2ccccc2F)c2cc(Cl)ccc2N1C(C)=O` (stereo not given): the melting point lay within 213 to 215 °C.

`CC(C)c1ccc(C(=O)N2CCOCC2)cc1N` gave a melting point of 112 to 115 °C.

As for `NC(CSc1nc(NCc2ccc3c(c2)OCO3)cc(-c2ccccc2)n1)=NO`, the melting point lay in the range of 160 to 163 °C.

For the molecule `CC1COCc2nc3c(N)nc4ccc(OCc5cscn5)cc4c3n21` (stereo not given), the melting point was in the range of 240 to 242 °C.

Regarding `O=C(O)c1ccc(OCCCc2ccc(O)c(O)c2)cc1`, the melting point was in the range of 180 to 185 °C.

Take `CCOP(=O)(OCC)C(Nc1nocc1C)P(=O)(OCC)OCC`: the melting point was 68 to 69 °C.
